Consider 19 compounds from PubChem BioAssay AID330 (DTP/NCI, 2004).

SMILES strings stand for the structures. “And” between values parts separate entries of the source, which are not always exact repeats. Equal entries are not always repeated. Toxic doses and inconclusive results are not listed.

In the assay the test system is P388 leukemia ip, CD2F1 mice, survival T/C. The assay can be described thus: NCI In Vivo Anticancer Drug Screen. Data for tumor model P388 Leukemia (intraperitoneal) in CD2F1 (CDF1) mice. The note with it: endpoint: median survival time, higher = longer survival. The method, boiled down:
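Mice carrying the transplanted tumor received test compound or vehicle. Survival was recorded in each group, and the value is the treated-group measurement divided by that of the vehicle-treated control group.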

[1] abbreviates: dose: 50.0 mg/kg/injection, schedule: Q01DX005 (ip), vehicle: saline with Tween-80.
Setting [2] is: dose: 100.0 mg/kg/injection, schedule: Q01DX005 (ip), vehicle: saline with Tween-80.
The mark [3] stands for this setting: dose: 200.0 mg/kg/injection, schedule: Q01DX005 (ip), vehicle: saline with Tween-80.
[4] abbreviates: dose: 50.0 mg/kg/injection, schedule: Q01DX009 (ip), vehicle: saline.
Setting [5] is: dose: 100.0 mg/kg/injection, schedule: Q01DX009 (ip), vehicle: saline.
Where [6] appears, read: dose: 60.0 mg/kg/injection, schedule: Q01DX005 (ip), vehicle: saline with Tween-80.
[7] abbreviates: dose: 120.0 mg/kg/injection, schedule: Q01DX005 (ip), vehicle: saline with Tween-80.
[8] abbreviates: dose: 240.0 mg/kg/injection, schedule: Q01DX005 (ip), vehicle: saline with Tween-80.
[9] abbreviates: dose: 50.0 mg/kg/injection, schedule: Q01DX005 (ip), vehicle: Klucel (hydroxypropylcellulose) (HPC).
Where [10] appears, read: dose: 100.0 mg/kg/injection, schedule: Q01DX005 (ip), vehicle: Klucel (hydroxypropylcellulose) (HPC).

For `Cc1ccc(NC(=O)C(=O)C(C#N)c2c(Cl)cccc2Cl)c(C)c1` (centres undefined), the T/C is 102 % of control under setting [1], 105 % of control under setting [2] and 105 % of control under setting [3].

For the compound `Cc1ncc2n1-c1ccc(Cl)cc1C(c1ccccc1F)=NC2`, the T/C runs as follows: under setting [4], 103 % of control; under setting [5], 112 % of control.

For the compound `COC1SCCn2c1nc1ccccc1c2=O` (centres undefined), the T/C runs as follows: under setting [6], 107 % of control; under setting [7], 98 % of control; under setting [8], 99 % of control.

For `Fc1ccc(N2CSC(=S)N(c3ccc(F)cc3F)C2)c(F)c1`, the T/C under setting [1] is 107 % of control, the T/C under setting [2] is 104 % of control and the T/C under setting [3] was 95 % of control.

`C=C1C(C2(C)C(OC(C)=O)CC(=O)OC3(C)COC(=O)CC32)C(OC=O)C(OC(=O)CC(C)C)C2(C)C(c3ccoc3)CC(=O)C12O` (centres undefined): the T/C reads like this: (dose: 0.25 mg/kg/injection, schedule: Q01DX009 (ip), vehicle: Klucel (hydroxypropylcellulose) (HPC)) 88 % of control; (dose: 0.5 mg/kg/injection, schedule: Q01DX009 (ip), vehicle: Klucel (hydroxypropylcellulose) (HPC)) 91 % of control; (dose: 1.0 mg/kg/injection, schedule: Q01DX009 (ip), vehicle: Klucel (hydroxypropylcellulose) (HPC)) 88 % of control; (dose: 2.0 mg/kg/injection, schedule: Q01DX009 (ip), vehicle: Klucel (hydroxypropylcellulose) (HPC)) 97 % of control.

On to `CCC(=O)Nc1ccc(C(=O)C(C)Br)cc1` (centres undefined), for which the T/C by setting is: (dose: 6.25 mg/kg/injection, schedule: Q01DX009 (ip), vehicle: saline with Tween-80) 108 % of control; (dose: 12.5 mg/kg/injection, schedule: Q01DX009 (ip), vehicle: saline with Tween-80) 115 % of control; (dose: 25.0 mg/kg/injection, schedule: Q01DX009 (ip), vehicle: saline with Tween-80) 117 % of control.

As for `COC1/C=C/OC2(C)Oc3c(C)c(O)c4c(c3C2=O)C(=O)C2=C(NC(=NC2)/C(C)=C\C=C\C(C)C(O)C(C)C(O)C(C)C(OC(C)=O)C1C)C4=O` (centres undefined), the T/C is, setting by setting: (dose: 6.25 mg/kg/injection, schedule: Q04DX003 (ip), vehicle: other) 94 % of control; (dose: 12.5 mg/kg/injection, schedule: Q04DX003 (ip), vehicle: other) 101 % of control; (dose: 25.0 mg/kg/injection, schedule: Q04DX003 (ip), vehicle: other) 113 % of control; (dose: 50.0 mg/kg/injection, schedule: Q04DX003 (ip), vehicle: other) 109 % of control; (dose: 100.0 mg/kg/injection, schedule: Q04DX003 (ip), vehicle: other) 122 % of control.

Turning to `CCCCCC1C(=O)CNC1(C(=O)OCC)C(=O)OCC` (centres undefined), the T/C runs as follows: (dose: 12.5 mg/kg/injection, schedule: Q01DX009 (ip), vehicle: Klucel (hydroxypropylcellulose) (HPC)) 104 % of control; (dose: 25.0 mg/kg/injection, schedule: Q01DX009 (ip), vehicle: Klucel (hydroxypropylcellulose) (HPC)) 108 % of control; (dose: 50.0 mg/kg/injection, schedule: Q01DX009 (ip), vehicle: Klucel (hydroxypropylcellulose) (HPC)) 104 % of control; (dose: 100.0 mg/kg/injection, schedule: Q01DX009 (ip), vehicle: Klucel (hydroxypropylcellulose) (HPC)) 88 % of control; (dose: 200.0 mg/kg/injection, schedule: Q01DX009 (ip), vehicle: Klucel (hydroxypropylcellulose) (HPC)) 89 % of control.

As for `Cc1c2ccncc2c(C)c2c1sc1ccccc12`, the T/C was 121 % of control (dose: 12.5 mg/kg/injection, schedule: Q04DX003 (ip), vehicle: alkali diluted with water); 162 % of control (dose: 200.0 mg/kg/injection, schedule: Q04DX003 (ip), vehicle: alkali diluted with water); 155 % of control (dose: 200.0 mg/kg/injection, schedule: Q04DX003 (ip), vehicle: distilled water + Tween-80); 117 % of control (dose: 400.0 mg/kg/injection, schedule: Q04DX003 (ip), vehicle: distilled water + Tween-80).

In the case of `Oc1ccc(C2COc3c(ccc(O)c3O)C2)cc1` (centres undefined), the T/C runs as follows: under setting [6], 98 % of control; under setting [7], 100 % of control; under setting [8], 101 % of control.

As for `O=NN(CCCl)C(=O)NC1CCCCC1`, the T/C by setting is: (dose: 1.0 mg/kg/injection, schedule: Q01DX009 (ip), vehicle: saline with Tween-80) 118 % of control; (dose: 4.0 mg/kg/injection, schedule: Q01DX009 (ip), vehicle: saline with Tween-80) 168 % of control; (dose: 7.2 mg/kg/injection, schedule: Q04DX003 (ip), vehicle: saline + alcohol) 204 % of control; (dose: 8.0 mg/kg/injection, schedule: Q01DX009 (ip), vehicle: saline with Tween-80) 218 % of control and 240 % of control; (dose: 12.0 mg/kg/injection, schedule: Q04DX003 (ip), vehicle: carboxymethylcellulose (CMC)) 154 % of control; (dose: 12.0 mg/kg/injection, schedule: Q04DX003 (ip), vehicle: saline + alcohol) 339 % of control. In addition, the T/C (dose: 16.0 mg/kg/injection, schedule: Q01DX009 (ip), vehicle: saline with Tween-80) was 272 % of control; the T/C (dose: 18.0 mg/kg/injection, schedule: Q04DX003 (ip), vehicle: carboxymethylcellulose (CMC)) is 190 % of control and 191 % of control; the T/C (dose: 20.0 mg/kg/injection, schedule: Q04DX003 (ip), vehicle: saline + alcohol) was 412 % of control; the T/C (dose: 27.0 mg/kg/injection, schedule: Q04DX003 (ip), vehicle: carboxymethylcellulose (CMC)) was 227 % of control and 243 % of control; the T/C (dose: 33.3 mg/kg/injection, schedule: Q04DX003 (ip), vehicle: saline + alcohol) is 119 % of control; the T/C (dose: 40.0 mg/kg/injection, schedule: Q04DX003 (ip), vehicle: carboxymethylcellulose (CMC)) is 304 % of control and 538 % of control. Also, the T/C by setting is: (dose: 64.0 mg/kg/injection, schedule: Q01DX001 (ip), vehicle: saline + alcohol) 250 % of control and 265 % of control; (dose: 128.0 mg/kg/injection, schedule: Q01DX001 (ip), vehicle: saline + alcohol) 168 % of control.

With `O=[N+]([O-])c1ccc(SN2CCCCC2CC2CCCCC2)c([N+](=O)[O-])c1` (centres undefined), the T/C under setting [9] is 105 % of control; the T/C under setting [10] was 98 % of control; the T/C (dose: 200.0 mg/kg/injection, schedule: Q01DX005 (ip), vehicle: Klucel (hydroxypropylcellulose) (HPC)) was 96 % of control.

On to `CSc1nccnn1`, for which the T/C is 109 % of control (dose: 6.25 mg/kg/injection, schedule: Q01DX009 (ip), vehicle: saline); 115 % of control (dose: 12.5 mg/kg/injection, schedule: Q01DX009 (ip), vehicle: saline); 108 % of control and 116 % of control (dose: 25.0 mg/kg/injection, schedule: Q01DX009 (ip), vehicle: saline); 118 % of control under setting [4]; 120 % of control under setting [5].

As for `O=C1C=C(O)C2CCCCC2N1` (centres undefined), the T/C is, setting by setting: under setting [9], 99 % of control; under setting [10], 95 % of control.

For the compound `CCCCCCCC1(O)OC(=O)C(C)=C1C` (centres undefined), the T/C by setting is: (dose: 12.5 mg/kg/injection, schedule: Q04DX003 (ip), vehicle: saline with Tween-80) 101 % of control; (dose: 25.0 mg/kg/injection, schedule: Q04DX003 (ip), vehicle: saline with Tween-80) 108 % of control; (dose: 50.0 mg/kg/injection, schedule: Q04DX003 (ip), vehicle: saline with Tween-80) 100 % of control.

As for `O=C(Nc1nc(-c2ccccc2)cs1)OCC(Cl)(Cl)Cl`, the T/C runs as follows: under setting [1], 93 % of control; under setting [2], 91 % of control; under setting [3], 96 % of control.

With `CCOC(=O)/C=C(\C)N1CCCCC1`, the T/C is 100 % of control (dose: 100.0 mg/kg/injection, schedule: Q04DX003 (ip), vehicle: saline); 100 % of control (dose: 200.0 mg/kg/injection, schedule: Q04DX003 (ip), vehicle: saline); 100 % of control (dose: 400.0 mg/kg/injection, schedule: Q04DX003 (ip), vehicle: saline).

With `CC(C)N=C(C1=C(O)c2ccccc2C1=O)c1ccccc1`, the T/C is 100 % of control (dose: 25.0 mg/kg/injection, schedule: Q04DX002 (ip), vehicle: saline with Tween-80); 104 % of control (dose: 50.0 mg/kg/injection, schedule: Q04DX002 (ip), vehicle: saline with Tween-80); 100 % of control (dose: 100.0 mg/kg/injection, schedule: Q04DX002 (ip), vehicle: saline with Tween-80).

Consider `CCOCC(=O)N[C@H]1CCc2cc(OC)c(OC)c(OC)c2-c2ccc(OC)c(=O)cc21`, for which the T/C by setting is: (dose: 0.31 mg/kg/injection, schedule: Q01DX009 (ip), vehicle: water) 150 % of control; (dose: 0.63 mg/kg/injection, schedule: Q01DX009 (ip), vehicle: water) 171 % of control; (dose: 1.25 mg/kg/injection, schedule: Q01DX009 (ip), vehicle: water) 198 % of control and 221 % of control.
